For assay [1], the system named is cotton. Kind of assay: Preemergent control of plant species. The assay is classed as in vivo, Gossypium spp. To be noted: Gossypium hirsutum, pre-emergence, 336 h; 0.25 lb/acre; read-out: percent preemergent control. On the procedure: (§1) The seeds of various species of plants were planted in beds of good agricultural soil in a greenhouse. A number of compositions of the present invention, generally in the nature of an aqueous emulsion, were applied at rates listed in the table so as to deposit a predetermined amount of active ingredients uniformly throughout the surface of the bed. Another seed bed was treated only with water to serve as a control. After treatment the seed beds were maintained for two weeks under greenhouse conditions conducive for good plant growth and watered as necessary. Control refers to the reduction in growth compared to the observed results of the same untreated species.

For assay [2], the system named is soybean. Kind of assay: Preemergent control of plant species. Format: in vivo, Glycine max. As to conditions: Glycine max, pre-emergence, 336 h; 0.25 lb/acre; read-out: percent preemergent control. On the procedure: as §1
Assay [3] has as its system sugar beet. Put plainly: Preemergent control of plant species. Format: in vivo, Beta saccharifera. To be noted: Beta vulgaris, pre-emergence, 336 h; 0.25 lb/acre; read-out: percent preemergent control. The protocol: as §1
Assay [4] deals with jimsonweed. Put plainly: Preemergent control of plant species. To be noted: Datura stramonium, pre-emergence, 336 h; 0.25 lb/acre; read-out: percent preemergent control. Format: in vivo, Datura stramonium. The protocol:
as §1

Assay [5] relates to annual morning glory. Put plainly: Preemergent control of plant species. The assay is classed as in vivo, Ipomoea spp. To be noted: Ipomoea, pre-emergence, 336 h; 0.25 lb/acre; read-out: percent preemergent control. On the procedure: as §1
Assay [6] relates to velvetleaf. Kind of assay: Preemergent control of plant species. The assay is classed as in vivo, Abutilon theophrasti. To be noted: Abutilon theophrasti, pre-emergence, 336 h; 0.25 lb/acre; read-out: percent preemergent control. The protocol:
as §1

For assay [7], the system named is corn. Kind of assay: Preemergent control of plant species. The assay is classed as in vivo, Zea mays. To be noted: Zea mays, pre-emergence, 336 h; 0.25 lb/acre; read-out: percent preemergent control. The protocol:
as §1

Assay [8] relates to rice. Kind of assay: Preemergent control of plant species. The assay is classed as in vivo, Oryza sativa. To be noted: Oryza sativa, pre-emergence, 336 h; 0.25 lb/acre; read-out: percent preemergent control. The protocol: as §1
For assay [9], the system named is sorghum. Kind of assay: Preemergent control of plant species. The assay is classed as in vivo, Sorghum vulgare. To be noted: Sorghum, pre-emergence, 336 h; 0.25 lb/acre; read-out: percent preemergent control. On the procedure:
as §1

Assay [10] concerns wheat. Put plainly: Preemergent control of plant species. Format: in vivo, Triticum aestivum. As to conditions: Triticum aestivum, pre-emergence, 336 h; 0.25 lb/acre; read-out: percent preemergent control. On the procedure: as §1
Assay [11] concerns barnyardgrass. Put plainly: Preemergent control of plant species. Format: in vivo, Echinochloa crusgalli. To be noted: Echinochloa crus-galli, pre-emergence, 336 h; 0.25 lb/acre; read-out: percent preemergent control. The protocol:
as §1

The subject of assay [12] is johnson grass. Kind of assay: Preemergent control of plant species. To be noted: Sorghum halepense, pre-emergence, 336 h; 0.25 lb/acre; read-out: percent preemergent control. Format: in vivo, Sorghum halepense. The protocol: as §1
Assay [13] deals with yellow foxtail. Put plainly: Preemergent control of plant species. The assay is classed as in vivo, Setaria lutescens. To be noted: Setaria, pre-emergence, 336 h; 0.25 lb/acre; read-out: percent preemergent control. The protocol: as §1
Assay [14] deals with yellow nutsedge. Kind of assay: Preemergent control of plant species. Format: in vivo, Cyperus esculentus. As to conditions: Cyperus, pre-emergence, 336 h; 0.25 lb/acre; read-out: percent preemergent control. On the procedure:
as §1

The subject of assay [15] is rape. Put plainly: Preemergent control of plant species. The assay is classed as in vivo, Brassica napus. To be noted: Brassica napus, pre-emergence, 336 h; 0.25 lb/acre; read-out: percent preemergent control. On the procedure:
as §1

The test system of assay [16] is nitrification of ammonium nitrogen. Put plainly: Suppression of nitrification of ammonium nitrogen in soil. As to conditions: 27° C. An outline of the steps: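 Soil (20 g) moistened to its 1/3 bar tension value, mixed with test chemical and incubated sealed for two weeks at 27° C. Nitrate extracted with ammonium sulfate solution and measured by nitrate-specific ion electrode; value given as % NH4-N remaining.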

SMILES strings stand for the structures.

`O=S(=O)(Nc1c(Cl)cccc1Cl)c1nc2ncccn2n1` [Compound 137]: the plant injury at 280.212 g/ha worked out at 80% in assay [1]; 0% in [2]; 100% in assay [3]; 0% in [7]; 50% in assay [8]; 30% in assay [9]. In addition, the plant injury at 280.212 g/ha in [10] was found to be 30%. For the same molecule, the pest or weed control at 280.212 g/ha in assay [4] worked out at 10%; in assay [5] it was 70%; in assay [6] it was 80%; in assay [11], 20%; in [12] it was 20%; in assay [13], 20%. For the same molecule, in [14], the pest or weed control at 280.212 g/ha is 100%.

Consider `COc1ccc(F)c(NS(=O)(=O)c2nc3nc(C)ccn3n2)c1F` [Compound 172], for which the plant injury at 280.212 g/ha in assay [1] amounted to 100%; in assay [2], 90%; in assay [3], 100%; in assay [7], 80%; in assay [8] it was 100%; in assay [9], 100%. Besides, the plant injury at 280.212 g/ha in assay [10] is 90%. Moreover, the pest or weed control at 280.212 g/ha in assay [4] came out at 100%; in assay [5], 90%; in assay [6] it was 100%; in assay [11], 100%; in assay [12], 90%; in assay [13] it was 100%. The pest or weed control at 280.212 g/ha in assay [14] stood at 100%.

Take `Cc1ccc(F)c(NS(=O)(=O)c2nc3nccc(C)n3n2)c1F` [Compound 190]: the plant injury at 280.212 g/ha stood at 90% in [1]; 90% in assay [2]; 100% in assay [3]; 10% in [7]; 20% in assay [8]; 95% in assay [9]. The plant injury at 280.212 g/ha in assay [10] was found to be 20%. Moreover, the pest or weed control at 280.212 g/ha in assay [4] worked out at 90%; in [5], 50%; in [6], 50%; in assay [11], 30%; in assay [12], 30%; in assay [13] it was 70%. In addition, the pest or weed control at 280.212 g/ha in [14] turned out to be 100%.

Regarding `COc1cccc(C(F)(F)F)c1NS(=O)(=O)c1nc2nccc(C)n2n1` [Compound 191], the plant injury at 280.212 g/ha in [1] is 100%; in assay [15], 100%; in assay [2], 100%; in assay [3], 100%; in assay [7] it was 95%; in assay [9], 100%. Also, the plant injury at 280.212 g/ha in assay [10] came out at 100%. Moreover, the pest or weed control at 280.212 g/ha in assay [4], in [5], in [6], in [11], in assay [12] and in [13] was 100% throughout. In addition, the pest or weed control at 280.212 g/ha in assay [14] is 100%.

As for `CSc1nc2nc(S(=O)(=O)Nc3c(Cl)cccc3Cl)nn2cc1C` [Compound 235], the plant injury at 280.212 g/ha amounted to 50% in assay [1]; 0% in assay [2]; 50% in assay [3]; 50% in [7]; 10% in assay [8]; 50% in assay [9]. Further, the plant injury at 280.212 g/ha in assay [10] is 50%. Moreover, the pest or weed control at 280.212 g/ha turned out to be 50% in [4]; 90% in assay [5]; 20% in assay [6]; 0% in assay [12]; 20% in assay [13]; 0% in assay [14].

Regarding `Cc1cn2nc(S(=O)(=O)Nc3c(Cl)cccc3Cl)nc2nc1N(C)C` [Compound 237], the plant injury at 280.212 g/ha in assay [1] is 50%; in assay [2], 40%; in assay [3], 50%; in [7], 20%; in assay [8], 20%; in assay [9], 20%. Moreover, the plant injury at 280.212 g/ha in assay [10] came out at 100%. The pest or weed control at 280.212 g/ha in assay [4] was determined as 10%; in [5], 20%; in assay [6], 0%; in assay [11], 10%; in assay [12], 10%; in [13], 30%. Further, the pest or weed control at 280.212 g/ha in [14] worked out at 30%.

For the molecule `COC(=O)c1cc2ccccc2cc1NS(=O)(=O)c1nc2nc(C)cc(C)n2n1` [Compound 245], the “% NH4-N Remaining After 2 Weeks Incubation” value in [16] (0.06 ppm) was 0%; in [16] (0.25 ppm), 0%; in assay [16] (1 ppm), 0%; in assay [16] (4 ppm), 30%.

`Cc1cc(C)n2nc(S(=O)(=O)Nc3ncc(Cl)cc3Cl)nc2n1` [Compound 251]: the “% NH4-N Remaining After 2 Weeks Incubation” value in assay [16] (0.01 ppm) worked out at 0%; in assay [16] (0.1 ppm), 0%; in assay [16] (1 ppm), 0%; in assay [16] (10 ppm), 29%.

Take `Cc1cc(C)n2nc(S(=O)(=O)Nc3ncccc3Cl)nc2n1` [Compound 252]: the “% NH4-N Remaining After 2 Weeks Incubation” value in [16] (0.01 ppm) is 0%; in [16] (0.1 ppm), 0%; in assay [16] (1 ppm), 38%; in [16] (10 ppm), 82%.

Consider `Cc1cc(C)n2nc(S(=O)(=O)Nc3ccncc3)nc2n1` [Compound 253], for which the “% NH4-N Remaining After 2 Weeks Incubation” value is recorded as 0% in assay [16] (0.01 ppm), 5% in [16] (0.1 ppm), 0% in assay [16] (1 ppm) and 17% in assay [16] (10 ppm).

Turning to `Cc1cc(C)n2nc(S(=O)(=O)Nc3cccnc3Cl)nc2n1` [Compound 255], the “% NH4-N Remaining After 2 Weeks Incubation” value in [16] (0.01 ppm) is on record as 0%; in assay [16] (0.1 ppm) it was 0%; in [16] (1 ppm), 37%; in assay [16] (10 ppm), 72%.

In the case of `Cc1cc(C)n2nc(S(=O)(=O)Nc3nccs3)nc2n1` [Compound 256], the “% NH4-N Remaining After 2 Weeks Incubation” value in [16] (0.01 ppm) stood at 20%; in [16] (0.1 ppm), 13%; in assay [16] (1 ppm) it was 10%; in [16] (10 ppm) it was 48%.

As to `COC(=O)c1sccc1NS(=O)(=O)c1nc2nc(C)cc(C)n2n1` [Compound 257], the “% NH4-N Remaining After 2 Weeks Incubation” value in [16] (0.01 ppm) was 0%; in assay [16] (0.1 ppm), 0%; in assay [16] (1 ppm) it was 0%; in assay [16] (10 ppm), 58%.

Consider `Cc1cc(C)n2nc(S(=O)(=O)Nc3nc4c(Cl)cccc4s3)nc2n1` [Compound 258], for which the “% NH4-N Remaining After 2 Weeks Incubation” value in [16] (0.01 ppm) was determined as 0%; in assay [16] (0.1 ppm), 0%; in assay [16] (1 ppm) it was 23%; in [16] (10 ppm) it was 78%.

Take `CCOC(=O)CN(c1c(Cl)cccc1Cl)S(=O)(=O)c1nc2nc(C)cc(C)n2n1` [Compound 264]: the “% NH4-N Remaining After 2 Weeks Incubation” value in [16] (0.06 ppm) worked out at 0%; in assay [16] (0.25 ppm), 1%; in assay [16] (1 ppm), 26%; in assay [16] (4 ppm) it was 37%.

Source of the values: patent US4740233A, “Substituted 1,2,4-triazolo[1,5-a]-pyrimidine-2-sulfonamides and compositions and methods of controlling undesired vegetation and suppressing the nitrification of ammonium nitrogen in soil” (The Dow Chemical Company, priority 1986, dated 1988).
